Reference: PubChem BioAssay (NCI)
Where “and” joins values, the source holds several entries; their conditions need not be identical. Equal entries are not always repeated.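 48-hour exposure; five concentrations; linearly interpolated endpoints. Abbreviation: GI50, concentration required for 50% inhibition of growth. Definition used: TGI = concentration required for complete inhibition of growth.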

Columns and labels:
Experiment in all cases: NCI-60 cell line screen, 48 h
786-0 renal = test system: 786-0 renal
HCC-2998 colon = test system: HCC-2998 colon
HOP-92 NSCLC = test system: HOP-92 NSCLC
RPMI-8226 leukemia = test system: RPMI-8226 leukemia
SK-MEL-2 melanoma = test system: SK-MEL-2 melanoma
SK-MEL-5 melanoma = test system: SK-MEL-5 melanoma
SN12C renal = test system: SN12C renal
OVCAR-4 ovarian = test system: OVCAR-4 ovarian
PC-3 prostate = test system: PC-3 prostate

Row | Compound | TGI (786-0 renal) | TGI (HCC-2998 colon) | TGI (HOP-92 NSCLC) | TGI (RPMI-8226 leukemia) | TGI (SK-MEL-2 melanoma) | TGI (SK-MEL-5 melanoma) [µM] | TGI (SN12C renal) | TGI (OVCAR-4 ovarian) | GI50 (786-0 renal) | GI50 (HCC-2998 colon) | GI50 (HOP-92 NSCLC) | GI50 (OVCAR-4 ovarian) | GI50 (PC-3 prostate) | TGI (PC-3 prostate) | GI50 (RPMI-8226 leukemia) | GI50 (SK-MEL-2 melanoma) [µM] | GI50 (SK-MEL-5 melanoma) [µM] | GI50 (SN12C renal)
1 | CC(=O)Nc1ccc(/C=C/C(=O)c2sc(C(N)=S)nc2C)cc1 | > 100 µM | > 100 µM | > 100 µM | > 100 µM | > 100 µM | > 100 | > 100 µM | – | – | – | – | – | – | – | – | – | – | –
2 | Cn1c2cccc3nnc4cccc(c4c32)n1C | > 100 µM | > 100 µM | > 100 µM | > 100 µM | > 100 µM | > 100 | > 100 µM | > 100 µM | – | – | – | – | – | – | – | – | – | –
3 | COC(=O)C1=CC2OC1(C)C1(CC1)C2=O (centres undefined) | 31.8 µM | 34.2 µM | – | 30.3 µM | – | – | 31 µM | 24 µM | – | – | – | – | – | – | – | – | – | –
4 | O=C1c2ccccc2C(=O)c2nc(-c3ccccc3)c(-c3ccccc3)nc21 | > 100 µM | > 100 µM | > 100 µM | > 100 µM | > 100 µM | 8.2 | > 100 µM | > 66.9 µM | – | – | – | – | – | – | – | – | – | –
5 | COC(=O)C(=O)C(C(=O)C(=O)Nc1cc([N+](=O)[O-])ccc1[N+](=O)[O-])c1nc2ccc(C(=O)c3ccccc3)cc2[nH]c1=O (centres undefined) | > 100 µM | > 100 µM | – | 62.4 µM | > 100 µM | 45.9 | > 100 µM | > 100 µM | – | – | – | – | – | – | – | – | – | –
6 | CCC(=C(c1ccc(OCc2ccccc2)cc1)c1ccc(OCc2ccccc2)cc1)c1ccc(OC)cc1 | > 100 µM | > 100 µM | > 100 µM | > 100 µM | > 100 µM | > 100 | > 100 µM | > 100 µM | – | – | – | – | – | – | – | – | – | –
7 | Cc1ccc(S(=O)(=O)N/N=C(\C(=O)Nc2cccc([N+](=O)[O-])c2)c2nc3ccc([N+](=O)[O-])cc3[nH]c2=O)cc1 | > 100 µM | 69.9 µM | > 100 µM | > 100 µM | > 100 µM | > 100 | > 100 µM | > 100 µM | – | – | – | – | – | – | – | – | – | –
8 | COc1ccc(OC)c2cc(C3(C)SCCCS3)ccc12 | > 100 µM | > 100 µM | – | > 100 µM | > 100 µM | > 100 | > 100 µM | > 100 µM | – | – | – | – | – | – | – | – | – | –
9 | CC1C(=O)N(C)C2(CO)C(=O)O[C@H](C)C12O (some centres undefined) | > 100 µM | > 100 µM | – | > 100 µM | > 100 µM | > 100 | – | > 100 µM | – | – | – | – | – | – | – | – | – | –
10 | Cc1ccc2[nH]c(=O)c(C(C#N)c3ccccc3)nc2c1 (centres undefined) | > 100 µM | > 100 µM | 93.8 µM | > 100 µM | 65.4 µM | 57.8 | > 100 µM | > 100 µM | – | – | – | – | – | – | – | – | – | –
11 | CCOC(=O)c1c(Cl)c2c(n1Cc1cc(OC)cc(OC)c1)-c1oncc1CCC2 | > 71.4 µM | > 100 µM | 28.6 µM | > 100 µM | 4.07 µM | > 100 | > 100 µM | > 85.3 µM | 1.47 µM | 15.4 µM | 0.335 µM | 1.91 µM | 0.293 µM | > 100 µM | 0.383 µM | 0.226 | 0.451 | 0.77 µM
12 | CCOC(=O)C1=C(C)N(NC(=O)c2ccccc2)C2(O)CCCC12C(=O)OCC (centres undefined) | > 100 µM | > 100 µM | – | > 100 µM | > 100 µM | > 100 | > 100 µM | > 100 µM | – | – | – | – | – | – | – | – | – | –
13 | O=C1C=CC2(C=C1)CCN=c1c(O)c3c(c(O)c12)=NC=N3 | 32.1 µM and > 100 µM | 32.6 µM and > 100 µM | 28.9 µM and > 100 µM | 42.3 µM and > 100 µM | 16 µM and > 100 µM | – | 29.4 µM and > 100 µM | 29.7 µM and > 100 µM | 17.6 µM and > 100 µM | 18.5 µM and > 100 µM | 14.8 µM and > 100 µM | 15.9 µM and > 100 µM | 10.1 µM and > 100 µM | 35 µM and > 100 µM | 12.2 µM and > 100 µM | – | – | 14.5 µM and > 100 µM
14 | CC1C2=CC=C(O2)C(C)(C)C2=CC=C(O2)C(C)(C)C2=CC=C(O2)C(C)(C)C2=CC=C1O2 | > 100 µM | > 100 µM | > 100 µM | – | > 100 µM | – | > 100 µM | > 100 µM | – | – | – | – | – | – | – | – | – | –
15 | Cc1ccc(C2=NO[C@@H]3C(=O)N(c4ccc(Cc5ccc(N6C(=O)[C@H]7C(c8ccc(C)cc8)=NO[C@H]7C6=O)cc5)cc4)C(=O)[C@H]23)cc1 | > 100 µM | > 100 µM | > 100 µM | > 100 µM | > 100 µM | > 100 | > 100 µM | > 100 µM | – | – | – | – | – | – | – | – | – | –
16 | O=C(NCC#CCO)C(F)(F)F | > 100 µM | > 100 µM | – | – | > 100 µM | > 100 | > 100 µM | > 100 µM | – | – | – | – | – | – | – | – | – | –
17 | O=C(CC1(O)C(=O)Nc2c(Cl)cc(Cl)cc21)c1ccc2ccccc2c1 (centres undefined) | 23.8 µM | – | 36.2 µM | 29.8 µM | 16.3 µM | 18.8 | 22.9 µM | 26.4 µM | – | – | – | – | – | – | – | – | – | –
